According to patent publication US5622982A, “Acylated aminoalkanimidazoles and - triazoles” (Sandoz Ltd., priority 1994, dated 1997):
Read-outs that look alike come from different tables or passages of the source.

What was measured:
Format in all cases: cell-based
[1] = target: T1, 25-hydroxyvitamin D3-hydroxylases which attack the C20-27-side chain of vitamin D3 (Homo sapiens, UniProt Q07973); assay: Inhibition of side chain metabolism / vitamin D3-hydroxylases attacking the C20-27 side chain in calcitriol-pretreated keratinocytes (test a)); conditions: for inhibition of 25-hydroxyvitamin D3-hydroxylases which attack the C20-27 side chain (in words): selectivity versus calcitriol synthesis; for IC50: test a), human keratinocytes, pretreated with 10 nM calcitriol
T1 construct: Confluent human keratinocytes in 1 ml of KGM and in 6-well plates; endogenous in cells; host or cells: normal human epidermal keratinocytes pretreated overnight (16-17 h) with 10 nM calcitriol
T1 sequence (Q07973 36-514): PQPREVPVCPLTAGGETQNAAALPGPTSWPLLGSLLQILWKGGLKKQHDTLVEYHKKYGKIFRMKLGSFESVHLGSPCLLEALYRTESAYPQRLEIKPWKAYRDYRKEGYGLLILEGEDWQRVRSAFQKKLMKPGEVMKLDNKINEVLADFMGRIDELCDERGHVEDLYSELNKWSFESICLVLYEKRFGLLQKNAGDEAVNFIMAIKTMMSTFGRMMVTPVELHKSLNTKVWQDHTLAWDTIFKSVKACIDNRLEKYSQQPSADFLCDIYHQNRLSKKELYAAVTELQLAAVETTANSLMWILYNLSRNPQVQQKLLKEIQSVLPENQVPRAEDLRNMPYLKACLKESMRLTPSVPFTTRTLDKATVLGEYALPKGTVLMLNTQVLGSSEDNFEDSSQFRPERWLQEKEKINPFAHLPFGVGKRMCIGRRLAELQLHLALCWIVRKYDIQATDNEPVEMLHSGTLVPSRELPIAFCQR

[2] = target: T2, 25(OH)D3-1-hydroxylase (Homo sapiens, UniProt O15528); assay: Inhibition of vitamin D3-1-hydroxylase (oxidation of 3H-25(OH)D3, test a)); conditions: for IC50: test a), human keratinocytes, 1 hour, without calcitriol pretreatment
T2 construct: Confluent cultures of human keratinocytes in KGM; endogenous in cells; host or cells: normal human epidermal keratinocytes (adult skin from mammary reduction), generally second passage
T2 sequence (O15528 1-508): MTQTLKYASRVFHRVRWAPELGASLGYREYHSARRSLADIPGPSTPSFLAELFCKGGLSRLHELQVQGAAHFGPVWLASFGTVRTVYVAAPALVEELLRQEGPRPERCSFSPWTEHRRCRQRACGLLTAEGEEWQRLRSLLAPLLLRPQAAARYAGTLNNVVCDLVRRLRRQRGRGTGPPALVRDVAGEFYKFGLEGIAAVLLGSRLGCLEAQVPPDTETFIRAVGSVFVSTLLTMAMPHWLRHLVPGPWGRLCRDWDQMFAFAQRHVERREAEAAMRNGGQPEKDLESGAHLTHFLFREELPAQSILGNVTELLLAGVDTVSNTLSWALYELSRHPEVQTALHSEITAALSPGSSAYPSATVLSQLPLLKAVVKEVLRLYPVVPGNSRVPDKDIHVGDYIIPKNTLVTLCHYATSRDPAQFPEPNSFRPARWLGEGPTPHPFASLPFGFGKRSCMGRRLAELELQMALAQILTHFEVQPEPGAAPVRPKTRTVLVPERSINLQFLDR

[3] = tested on: human keratinocytes; assay: 3H-Thymidine incorporation into human keratinocytes, antiproliferative effects of vitamin D metabolites in the presence of inhibitors (test b)); conditions: Keratinocyte; test b)
[4] = read-out: IC50 for stabilization of 3-epi 1,25(OH)2 D3 levels
[5] = read-out: IC50 for stabilization of levels of the sum of 1,25(OH)2 D3, 1,24,25(OH)3D3 and 1,24oxo,25(OH)2 D3
[6] = in presence of 1α,25(OH)2 D3, read-out: IC50 as regards the concentration required to double the antiproliferative effect of 1α,25(OH)2 D3
[7] = in presence of 25(OH)D3, read-out: IC50 as regards the concentration required to double the antiproliferative effect of 25(OH)D3

inhibition of 25-hydroxyvitamin D3-hydroxylases which attack the C20-27 side chain (in words) [1]	IC50 [1, 4] [nM]	IC50 [1, 5] [nM]	interference with calcitriol synthesis via the 25(OH)D3-1-hydroxylase (in words) [2]	IC50 [2] [nM]	Compound	IC50 [3, 6] [nM]	IC50 [3, 7] [nM]
selective inhibitors	40	45	without interfering with its synthesis	530	O=C(NC[C@H](c1ccccc1)n1ccnc1)c1ccc(-c2ccc(Cl)cc2)cc1 [Example 8, N-[4-(4-Chlorophenyl)benzoyl]-2-(1H-imidazol-1-yl)-2(S)-phenyl-1-aminoethane]	30	11
selective inhibitors	12	19	without interfering with its synthesis	620	O=C(NC[C@@H](c1ccccc1)n1ccnc1)c1ccc(-c2ccc(Cl)cc2)cc1 [Example 9, N-[4-(4-Chlorophenyl)benzoyl]-2-(1H-imidazol-1-yl)-2(R)-phenyl-1-aminoethane]	35	12
